Values of other authors in patent publication US11020355B2, “Method of encapsulating cannabinoids in phospholipid carriers” (NuVessl, Inc., priority 2018, dated 2021).
Read-outs that look alike come from different tables or passages of the source.

Columns and labels:
[1] = set-up: AUC (0-10.5 hours): unit not given beside the values; conditions: oromucosal, historic data
[2] = oral administration

**Q.** Which results are given for `C=C(C)[C@@H]1CCC(C)=C[C@H]1c1c(O)cc(CCCCC)cc1O` [CBD, cannabidiol]?
**A.** C max ([1]; 10 mg CBD): 3.0 microgram per liter (nanogram per mL); C max ([1]; 15 mg CBD): 3.7 microgram per liter (nanogram per mL); AUC (0-10.5 hours) ([1]; 5-15 mg CBD): 4.1-12.6; Tmax ([1]; 5-15 mg CBD): 3.6 to 4.5 h; bioavailability [2]: 6%-15%
